Experimental data: paper PMC9719519, “Non-classical ferroptosis inhibition by a small molecule targeting PHB2” (Nature Communications, 2022)

Tests used:
Test in all cases: biochemical
Set-up in all cases: Eurofins recombinant human kinase profiling, remaining kinase activity as % of control, 10 uM ATP
Conditions in all cases: ATP 10 uM; read-out: %Ctrl@10 μM
[1] = biological target: T1, ACTR2(h) (Homo sapiens, UniProt P27037)
T1 construct: gene ACVR2A
How it was run: (§1)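 Activity measured in a commercial panel of 401 recombinant human protein kinases run as a kinase profiling service.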

[2] = biological target: EGFR(T790M,L858R)(h) (Homo sapiens, UniProt P00533, L858R/T790M)
How it was run: as §1

[3] = biological target: CDK1/cyclinB(h) (Homo sapiens, UniProt P06493)
Sequence of CDK1/cyclinB(h) (P06493 whole entry): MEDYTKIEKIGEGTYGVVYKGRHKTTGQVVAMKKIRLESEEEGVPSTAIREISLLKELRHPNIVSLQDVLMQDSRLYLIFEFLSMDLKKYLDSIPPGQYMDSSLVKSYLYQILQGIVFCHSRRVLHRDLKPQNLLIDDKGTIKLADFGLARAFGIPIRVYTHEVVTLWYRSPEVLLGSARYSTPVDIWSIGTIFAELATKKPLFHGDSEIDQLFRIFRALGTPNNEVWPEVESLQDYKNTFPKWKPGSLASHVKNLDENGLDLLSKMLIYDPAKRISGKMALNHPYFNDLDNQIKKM
Sequence of CDK1/cyclinB(h) (P14635 whole entry partner): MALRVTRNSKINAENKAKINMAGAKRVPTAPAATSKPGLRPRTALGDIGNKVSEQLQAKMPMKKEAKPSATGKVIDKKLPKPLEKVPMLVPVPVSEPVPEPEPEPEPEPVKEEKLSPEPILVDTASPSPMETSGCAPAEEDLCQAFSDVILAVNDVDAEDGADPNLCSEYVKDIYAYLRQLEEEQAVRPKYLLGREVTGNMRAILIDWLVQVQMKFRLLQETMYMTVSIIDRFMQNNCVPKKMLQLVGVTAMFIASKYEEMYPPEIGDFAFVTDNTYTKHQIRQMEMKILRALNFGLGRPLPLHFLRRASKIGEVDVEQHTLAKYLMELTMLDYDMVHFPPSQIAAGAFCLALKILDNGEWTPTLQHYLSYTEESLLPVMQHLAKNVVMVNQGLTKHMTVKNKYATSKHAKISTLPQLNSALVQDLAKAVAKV
How it was run: as §1

[4] = biological target: FGFR1(h) (Homo sapiens, UniProt P11362)
Sequence of FGFR1(h) (P11362 whole entry): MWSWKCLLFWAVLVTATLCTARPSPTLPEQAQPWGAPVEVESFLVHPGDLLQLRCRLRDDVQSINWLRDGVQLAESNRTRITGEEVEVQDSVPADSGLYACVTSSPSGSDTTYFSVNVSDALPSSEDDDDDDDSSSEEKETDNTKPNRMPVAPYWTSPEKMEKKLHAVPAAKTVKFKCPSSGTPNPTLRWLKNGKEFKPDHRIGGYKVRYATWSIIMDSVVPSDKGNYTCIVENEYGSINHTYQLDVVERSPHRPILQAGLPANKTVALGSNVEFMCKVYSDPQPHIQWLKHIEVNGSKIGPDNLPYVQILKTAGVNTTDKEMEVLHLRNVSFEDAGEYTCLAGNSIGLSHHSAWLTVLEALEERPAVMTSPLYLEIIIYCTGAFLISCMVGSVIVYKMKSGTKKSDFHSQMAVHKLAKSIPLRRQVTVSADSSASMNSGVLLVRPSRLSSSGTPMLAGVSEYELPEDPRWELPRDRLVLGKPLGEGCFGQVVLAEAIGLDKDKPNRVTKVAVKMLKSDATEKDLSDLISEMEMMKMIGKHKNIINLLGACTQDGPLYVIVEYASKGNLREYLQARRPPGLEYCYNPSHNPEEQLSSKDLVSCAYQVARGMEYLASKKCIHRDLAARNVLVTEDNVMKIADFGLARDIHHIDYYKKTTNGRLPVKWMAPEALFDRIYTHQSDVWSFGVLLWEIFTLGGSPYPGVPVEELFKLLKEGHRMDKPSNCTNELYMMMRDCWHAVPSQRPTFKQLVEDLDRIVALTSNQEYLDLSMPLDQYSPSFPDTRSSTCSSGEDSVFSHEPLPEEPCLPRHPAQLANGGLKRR
How it was run: as §1

[5] = biological target: T2, MRCKγ(h) (Homo sapiens, UniProt Q6DT37)
T2 construct: gene CDC42BPG
How it was run: as §1

[6] = biological target: T3, CHK2(h) (Homo sapiens, UniProt O96017)
T3 construct: gene CHEK2
How it was run: as §1

[7] = biological target: Plk1(h) (Homo sapiens, UniProt P53350)
Sequence of Plk1(h) (P53350 whole entry): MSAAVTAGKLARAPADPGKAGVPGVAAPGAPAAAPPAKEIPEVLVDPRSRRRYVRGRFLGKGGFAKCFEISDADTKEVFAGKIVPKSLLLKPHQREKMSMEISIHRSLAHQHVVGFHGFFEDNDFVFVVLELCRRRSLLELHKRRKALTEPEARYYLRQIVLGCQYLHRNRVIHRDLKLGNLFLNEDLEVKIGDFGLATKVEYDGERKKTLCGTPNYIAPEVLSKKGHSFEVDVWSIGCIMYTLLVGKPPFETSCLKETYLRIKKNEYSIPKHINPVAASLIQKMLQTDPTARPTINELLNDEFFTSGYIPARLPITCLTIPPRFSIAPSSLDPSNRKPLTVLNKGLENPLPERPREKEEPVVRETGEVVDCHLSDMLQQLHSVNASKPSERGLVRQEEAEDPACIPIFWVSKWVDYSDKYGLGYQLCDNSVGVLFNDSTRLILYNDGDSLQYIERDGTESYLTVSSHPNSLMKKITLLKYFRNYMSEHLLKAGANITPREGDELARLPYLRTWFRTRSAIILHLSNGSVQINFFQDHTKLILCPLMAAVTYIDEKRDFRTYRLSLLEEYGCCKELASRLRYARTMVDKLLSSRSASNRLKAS
How it was run: as §1

[8] = biological target: TBK1(h) (Homo sapiens, UniProt Q9UHD2)
How it was run: as §1

[9] = biological target: T4, IR(h) (Homo sapiens, UniProt P06213)
T4 construct: gene INSR
How it was run: as §1

[10] = biological target: T5, CK2α2(h) (Homo sapiens, UniProt P19784)
T5 construct: gene CSNK2A2
How it was run: as §1

[11] = biological target: BrSK1(h) (Homo sapiens, UniProt Q8TDC3)
How it was run: as §1

[12] = biological target: T6, PTK5(h) (Homo sapiens, UniProt P42685)
T6 construct: gene FRK
T6 sequence (P42685 whole entry): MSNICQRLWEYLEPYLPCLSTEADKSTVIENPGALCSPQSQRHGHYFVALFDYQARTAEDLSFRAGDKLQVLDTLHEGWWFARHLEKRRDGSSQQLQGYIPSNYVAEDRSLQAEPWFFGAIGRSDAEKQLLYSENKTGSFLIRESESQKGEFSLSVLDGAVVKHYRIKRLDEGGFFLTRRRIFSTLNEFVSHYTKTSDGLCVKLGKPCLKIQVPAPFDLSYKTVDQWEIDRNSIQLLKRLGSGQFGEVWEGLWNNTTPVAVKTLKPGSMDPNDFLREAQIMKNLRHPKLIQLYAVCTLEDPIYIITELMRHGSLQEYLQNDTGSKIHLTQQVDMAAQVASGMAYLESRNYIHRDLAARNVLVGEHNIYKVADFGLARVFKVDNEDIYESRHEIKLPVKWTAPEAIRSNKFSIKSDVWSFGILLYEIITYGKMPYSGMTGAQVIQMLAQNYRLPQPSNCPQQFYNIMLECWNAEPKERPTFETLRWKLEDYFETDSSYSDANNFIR
How it was run: as §1

[13] = biological target: EphB2(h) (Homo sapiens, UniProt P29323)
How it was run: as §1

[14] = biological target: T7, CaMKIγ(h) (Homo sapiens, UniProt Q96NX5)
T7 construct: gene CAMK1G
How it was run: as §1

[15] = biological target: Fgr(h) (Homo sapiens, UniProt P09769)
How it was run: as §1

[16] = biological target: T8, GSK3β(h) (Homo sapiens, UniProt P49841)
T8 construct: gene GSK3B
T8 sequence (P49841 whole entry): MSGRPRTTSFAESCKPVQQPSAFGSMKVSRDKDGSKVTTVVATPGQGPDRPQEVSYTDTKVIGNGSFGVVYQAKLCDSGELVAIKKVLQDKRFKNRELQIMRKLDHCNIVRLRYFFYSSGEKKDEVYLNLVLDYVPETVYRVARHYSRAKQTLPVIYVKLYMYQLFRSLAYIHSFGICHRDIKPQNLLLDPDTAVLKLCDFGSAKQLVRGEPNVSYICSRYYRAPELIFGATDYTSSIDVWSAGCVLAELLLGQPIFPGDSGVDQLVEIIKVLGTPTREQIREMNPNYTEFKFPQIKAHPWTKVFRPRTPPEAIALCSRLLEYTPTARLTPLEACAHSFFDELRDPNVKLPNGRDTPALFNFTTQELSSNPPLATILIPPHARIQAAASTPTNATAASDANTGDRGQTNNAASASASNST
How it was run: as §1

[17] = biological target: NLK(h) (Homo sapiens, UniProt Q9UBE8)
Sequence of NLK(h) (Q9UBE8 whole entry): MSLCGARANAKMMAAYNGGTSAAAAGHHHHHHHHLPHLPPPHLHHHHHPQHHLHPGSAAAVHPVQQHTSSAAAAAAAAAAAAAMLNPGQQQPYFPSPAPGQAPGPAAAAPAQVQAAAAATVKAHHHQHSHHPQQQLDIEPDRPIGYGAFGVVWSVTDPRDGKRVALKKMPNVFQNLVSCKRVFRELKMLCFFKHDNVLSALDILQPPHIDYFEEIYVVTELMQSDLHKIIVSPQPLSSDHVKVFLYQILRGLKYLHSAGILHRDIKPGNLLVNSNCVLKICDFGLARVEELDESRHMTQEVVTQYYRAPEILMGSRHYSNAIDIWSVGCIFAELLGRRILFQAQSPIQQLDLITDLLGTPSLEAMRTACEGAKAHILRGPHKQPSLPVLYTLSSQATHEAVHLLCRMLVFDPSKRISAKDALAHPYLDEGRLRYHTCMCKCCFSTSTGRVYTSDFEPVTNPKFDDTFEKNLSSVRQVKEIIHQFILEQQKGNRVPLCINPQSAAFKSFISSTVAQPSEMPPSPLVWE
How it was run: as §1

[18] = biological target: T9, MSK2(h) (Homo sapiens, UniProt O75676)
T9 construct: gene RPS6KA4
T9 sequence (O75676 whole entry): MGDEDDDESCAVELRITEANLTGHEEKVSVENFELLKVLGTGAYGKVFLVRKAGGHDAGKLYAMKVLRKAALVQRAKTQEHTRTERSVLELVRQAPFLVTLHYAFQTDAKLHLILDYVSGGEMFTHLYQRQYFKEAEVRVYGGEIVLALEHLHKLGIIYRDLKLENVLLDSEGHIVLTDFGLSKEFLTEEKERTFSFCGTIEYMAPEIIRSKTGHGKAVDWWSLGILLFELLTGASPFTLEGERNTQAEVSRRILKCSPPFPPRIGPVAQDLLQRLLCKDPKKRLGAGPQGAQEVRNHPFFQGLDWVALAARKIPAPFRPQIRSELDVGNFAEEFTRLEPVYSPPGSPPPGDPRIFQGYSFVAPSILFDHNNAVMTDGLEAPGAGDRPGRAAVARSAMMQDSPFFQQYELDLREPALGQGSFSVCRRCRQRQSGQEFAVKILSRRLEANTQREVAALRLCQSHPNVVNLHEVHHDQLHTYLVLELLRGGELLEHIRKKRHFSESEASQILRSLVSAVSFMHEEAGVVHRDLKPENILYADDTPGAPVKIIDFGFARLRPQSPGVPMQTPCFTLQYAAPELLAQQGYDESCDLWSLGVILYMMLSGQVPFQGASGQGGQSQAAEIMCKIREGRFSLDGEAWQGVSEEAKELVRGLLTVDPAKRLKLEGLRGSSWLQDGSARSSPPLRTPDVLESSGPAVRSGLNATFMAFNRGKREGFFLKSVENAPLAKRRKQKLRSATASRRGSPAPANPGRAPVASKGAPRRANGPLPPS
How it was run: as §1

[19] = biological target: DYRK3(h) (Homo sapiens, UniProt O43781)
How it was run: as §1

[20] = biological target: T10, SAPK3(h) (Homo sapiens, UniProt P53778)
T10 construct: gene MAPK12
How it was run: as §1

[21] = biological target: WNK3(h) (Homo sapiens, UniProt Q9BYP7)
How it was run: as §1

[22] = biological target: T11, MEKK3(h) (Homo sapiens, UniProt Q99759)
T11 construct: gene MAP3K3
T11 sequence (Q99759 whole entry): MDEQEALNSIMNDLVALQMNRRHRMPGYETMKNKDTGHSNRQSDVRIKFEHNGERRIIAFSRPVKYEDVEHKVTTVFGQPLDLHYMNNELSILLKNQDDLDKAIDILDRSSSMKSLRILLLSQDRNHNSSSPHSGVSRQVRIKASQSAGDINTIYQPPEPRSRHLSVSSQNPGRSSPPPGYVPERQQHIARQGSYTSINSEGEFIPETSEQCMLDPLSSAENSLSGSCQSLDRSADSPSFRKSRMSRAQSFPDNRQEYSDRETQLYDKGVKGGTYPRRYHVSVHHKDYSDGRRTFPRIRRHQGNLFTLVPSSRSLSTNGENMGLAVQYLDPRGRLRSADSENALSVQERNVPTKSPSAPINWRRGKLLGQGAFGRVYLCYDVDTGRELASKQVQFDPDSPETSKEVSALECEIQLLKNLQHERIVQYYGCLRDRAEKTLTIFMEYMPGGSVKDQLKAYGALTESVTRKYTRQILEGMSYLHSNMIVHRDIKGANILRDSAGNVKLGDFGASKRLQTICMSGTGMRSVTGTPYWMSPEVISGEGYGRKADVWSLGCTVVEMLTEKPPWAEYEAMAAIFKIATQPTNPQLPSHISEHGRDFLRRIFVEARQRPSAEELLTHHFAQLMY
How it was run: as §1

[23] = biological target: T12, PKCε(h) (Homo sapiens, UniProt Q02156)
T12 construct: gene PRKCE
How it was run: as §1

`C1=C(c2nc(-c3cnn(C4CCNCC4)c3)cn3cc(-c4ccccc4)nc23)CCOC1` [YL-939] was tested, and the remaining activity at 10 µM [1] was 94%, the remaining activity at 10 µM [2] was 91% and the remaining activity at 10 µM [3] was 92%. It also gave a remaining activity at 10 µM [4] of 115%, a remaining activity at 10 µM [5] of 95% and a remaining activity at 10 µM [6] of 100%. The remaining activity at 10 µM [7] was 84%, the remaining activity at 10 µM [8] was 90% and the remaining activity at 10 µM [9] was 114%. It also gave a remaining activity at 10 µM [10] of 98%, a remaining activity at 10 µM [11] of 91% and a remaining activity at 10 µM [12] of 75%. For the same compound, the remaining activity at 10 µM [13] was 81%, the remaining activity at 10 µM [14] was 108% and the remaining activity at 10 µM [15] was 76%. It also gave a remaining activity at 10 µM [16] of 96%, a remaining activity at 10 µM [17] of 86% and a remaining activity at 10 µM [18] of 90%. It also gave a remaining activity at 10 µM [19] of 77%, a remaining activity at 10 µM [20] of 75% and a remaining activity at 10 µM [21] of 87%. The remaining activity at 10 µM [22] was 108% and the remaining activity at 10 µM [23] was 95%.
